Assay: Hygroscopicity / storage stability: weight change on storage at 40° C. and 75% relative humidity
Format: physicochemical
Conditions: for Weight change with the elapse of time (in words): storage 0-4 hours at 40° C.
Protocol: 1 g of the crystal of glutathione trisulfide dihydrate produced in Example 2 was dissolved in water, and the volume was made up to 100 mL. The aqueous solution was filtered with a 0.45 μm of filter and then lyophilized to obtain a whitish transparent powder.
Subsequently, hygroscopicity of the obtained non-crystalline amorphous form of glutathione trisulfide and the crystal of glutathione trisulfide dihydrate produced in Example 2 was compared.
About 100 mg of each sample was weighed with a precise balance and then filled in a glass container, and after storage in THE051A (manufactured by Advantec Toyo Kaisha, Ltd.) under conditions of 40° C. and 75% relative humidity, the sample was weighed again to calculate a weight change rate. The sample weight after each elapsed time was measured with respect to 100% weight at the start of test.

[1] = as compared with the non-crystalline amorphous form, 40° C.

Compound | Hygroscopicity (in words) [1] | Storage stability (in words) [1] | Sample weight with respect to 100% weight at the start of test (elapsed time 0 hour, 40° C.) | Sample weight with respect to 100% weight at the start of test (elapsed time 0.5 hour, 40° C.) | Sample weight with respect to 100% weight at the start of test (elapsed time 1 hour, 40° C.) | Sample weight with respect to 100% weight at the start of test (elapsed time 2 hours, 40° C.) | Sample weight with respect to 100% weight at the start of test (elapsed time 4 hours, 40° C.) | Weight change with the elapse of time (in words)
N[C@@H](CCC(=O)N[C@@H](CSSSC[C@H](NC(=O)CC[C@H](N)C(=O)O)C(=O)NCC(=O)O)C(=O)NCC(=O)O)C(=O)O.O.O [crystal of dehydrate, glutathione trisulfide dihydrate] | low hygroscopicity | excellent storage stability | 100.0% | 100.0% | 100.0% | 100.0% | 100.0% | almost not changed
N[C@@H](CCC(=O)N[C@@H](CSSSC[C@H](NC(=O)CC[C@H](N)C(=O)O)C(=O)NCC(=O)O)C(=O)NCC(=O)O)C(=O)O [non-crystalline amorphous form, glutathione trisulfide] | – | – | 100.0% | 106.7% | 107.7% | 108.7% | 108.7% | increases with the elapse of time
